Measured values published in ChEMBL document CHEMBL1667808, “Substituted imidazole derivatives as novel cardiovascular agents” (Bioorg Med Chem Lett, 2011).
Active and inactive are the calls of the source. The rule behind the calls is not given here.

Legend:
[1] = system: Felis catus; test: Antihypertensive activity in cat assessed as change in blood pressure at 2.5 mg/kg measured within 5 mins; format: functional
[2] = system: Felis catus; test: Antihypertensive activity in cat assessed as change in blood pressure at 2.5 mg/kg measured after 5 mins; format: functional
[3] = system: Felis catus; test: Antihypertensive activity in cat assessed as change in heart rate at 2.5 mg/kg measured within 5 mins; format: functional
[4] = system: Felis catus; test: Antihypertensive activity in cat assessed as change in heart rate at 2.5 mg/kg measured after 5 mins; format: functional
[5] = system: Felis catus; test: Hypotensive activity in cat assessed as decrease carotid occlusion response at 2.5 mg/kg; format: functional, organism-based; set-up: dose 2.5 mg/kg
[6] = system: Felis catus; test: Hypotensive activity in cat assessed as decrease norepinephrine response at 2.5 mg/kg; format: functional, organism-based; set-up: dose 2.5 mg/kg

For `NNC(=O)Cn1c(-c2ccccc2)nc(-c2ccccc2)c1-c1ccccc1`, the Activity [1] was -25 mmHg, the Activity [2] was -15 mmHg and the Activity [3] was -6 bpm. The Activity [4] was -6 bpm, the Activity [5] was “inactive” and the Activity [6] was “inactive”.

Work on `NNC(=O)Cn1c(-c2ccccc2O)nc(-c2ccccc2)c1-c1ccccc1` yielded an Activity [1] of -22 mmHg, an Activity [2] of -17 mmHg and an Activity [3] of -21 bpm. For the same compound, the Activity [4] was “inactive”, the Activity [5] was “inactive” and the Activity [6] was “inactive”.

For `COc1ccc(-c2nnc(Cn3c(-c4ccc(O)c(OC)c4)nc(-c4ccccc4)c3-c3ccccc3)o2)cc1`, the Activity [1] was -10 mmHg, the Activity [2] was -10 mmHg and the Activity [5] was “Active”. For the same compound, the Activity [6] was “inactive”.

`CN(C)c1ccc(-c2nc(-c3ccccc3)c(-c3ccccc3)n2CC(=O)NN)cc1` showed an Activity [1] of -30 mmHg, an Activity [2] of -30 mmHg and an Activity [3] of -18 bpm. The Activity [4] was -27 bpm, the Activity [5] was “Active” and the Activity [6] was “inactive”.

With `COc1cc(-c2nc(-c3ccccc3)c(-c3ccccc3)n2CC(=O)NN)ccc1O` the Activity [1] was -30 mmHg, the Activity [2] was -20 mmHg and the Activity [4] was “inactive”. The Activity [5] was “Active” and the Activity [6] was “inactive”.

`COc1ccc(/C=N/NC(=O)Cn2c(-c3ccc(O)c(OC)c3)nc(-c3ccccc3)c2-c2ccccc2)cc1` was tested, and the Activity [1] was -10 mmHg, the Activity [5] was “Active” and the Activity [6] was “inactive”.

`COc1ccc(-c2nnc(Cn3c(-c4ccc(N(C)C)cc4)nc(-c4ccccc4)c3-c3ccccc3)o2)cc1` gave an Activity [1] of -15 mmHg, an Activity [2] of -10 mmHg and an Activity [3] of -6 bpm. For the same compound, the Activity [4] was -10 bpm, the Activity [5] was “Active” and the Activity [6] was “Active”.

In the case of `COc1ccc(-c2nnc(Cn3c(-c4ccccc4)nc(-c4ccccc4)c3-c3ccccc3)o2)cc1`, the Activity [1] is reported as -50 mmHg, the Activity [2] is reported as -10 mmHg and the Activity [5] is reported as “Active”. For the same compound, the Activity [6] was “inactive”.

In the case of `COc1cc(-c2nnc(Cn3c(-c4ccc(N(C)C)cc4)nc(-c4ccccc4)c3-c3ccccc3)o2)ccc1O`, the Activity [1] is reported as -50 mmHg, the Activity [2] is reported as -20 mmHg and the Activity [3] is reported as -6 bpm. The Activity [4] was -14 bpm, the Activity [5] was “Active” and the Activity [6] was “inactive”.

In the case of `COc1ccc(-c2nnc(Cn3c(-c4ccc(OC)cc4)nc(-c4ccccc4)c3-c3ccccc3)o2)cc1`, the Activity [1] is reported as -10 mmHg, the Activity [2] is reported as 10 mmHg and the Activity [5] is reported as “Active”. For the same compound, the Activity [6] was “Active”.

With `CN(C)c1ccc(/C=N/NC(=O)Cn2c(-c3ccccc3O)nc(-c3ccccc3)c2-c2ccccc2)cc1` the Activity [1] was -60 mmHg, the Activity [2] was -35 mmHg and the Activity [3] was -8 bpm. The Activity [4] was -11 bpm, the Activity [5] was “Active” and the Activity [6] was “inactive”.

`COc1cc(/C=N/NC(=O)Cn2c(-c3ccc(N(C)C)cc3)nc(-c3ccccc3)c2-c2ccccc2)ccc1O` showed an Activity [1] of -80 mmHg, an Activity [2] of -55 mmHg and an Activity [3] of -14 bpm. The Activity [4] was -20 bpm, the Activity [5] was “Active” and the Activity [6] was “inactive”.

Compound `COc1ccc(/C=N/NC(=O)Cn2c(-c3ccccc3)nc(-c3ccccc3)c2-c2ccccc2)cc1` has an Activity [1] of -15 mmHg, an Activity [3] of -8 bpm and an Activity [4] of -11 bpm. The Activity [5] was “inactive” and the Activity [6] was “inactive”.

For `COc1ccc(-c2nc(-c3ccccc3)c(-c3ccccc3)n2CC(=O)NN)cc1`, the Activity [1] was -20 mmHg, the Activity [2] was -5 mmHg and the Activity [3] was -16 bpm. The Activity [4] was -21 bpm, the Activity [5] was “inactive” and the Activity [6] was “inactive”.

Compound `CN(C)c1ccc(-c2nnc(Cn3c(-c4ccccc4O)nc(-c4ccccc4)c3-c3ccccc3)o2)cc1` has an Activity [1] of -15 mmHg, an Activity [2] of 5 mmHg and an Activity [3] of -5 bpm. For the same compound, the Activity [4] was -5 bpm, the Activity [5] was “inactive” and the Activity [6] was “inactive”.

In the case of `COc1ccc(/C=N/NC(=O)Cn2c(-c3ccc(OC)cc3)nc(-c3ccccc3)c2-c2ccccc2)cc1`, the Activity [1] is reported as -5 mmHg, the Activity [2] is reported as -5 mmHg and the Activity [5] is reported as “Active”. The Activity [6] was “inactive”.

`COc1ccc(/C=N/NC(=O)Cn2c(-c3ccc(N(C)C)cc3)nc(-c3ccccc3)c2-c2ccccc2)cc1` was tested, and the Activity [1] was -45 mmHg, the Activity [2] was -50 mmHg and the Activity [3] was -12 bpm. The Activity [4] was -14 bpm, the Activity [5] was “Active” and the Activity [6] was “inactive”.
